The subject of test [1] is NHEK cells. The test is described as follows: DNA double-strand breaks (γ-H2AX) induced by cigarette extract in NHEK. Format: cell-based, human. The following applies: (Ia) 10 ppm pretreatment 24 h and treatment 24 h, cigarette extract 1/50, Control 10346, Cigarette extract 13269. The protocol:
The cells used for this example are normal human Fibroblasts (NHDF) and normal human epidermal Keratinocytes (NHEK).
The cells are cultured at the concentration of 3000 cells per well of 96-well plates in the presence of standard culture medium for NHDF or NHEK (for 24 hours, 37° C., 5% CO2).
After pretreatment of the cells with the compound (Ia) at 10 ppm for 24 hours, the cells are treated with the cigarette extract diluted to 1/50° with or without compound (Ia) at 10 ppm for 24 hours. […].
After washing, the samples are then placed in the presence of DAPI for 10 min in order to mark the nuclei, then rinsed once again. The marked proteins are observed and quantified with an automated fluorescence microscope (ArrayScan® (Cellomics®)). The cells treated by the compound (Ia) are then compared to the untreated cells or to the cells only exposed to the cigarette extract.

For test [2], the system named is explants of human skin (NATIVESKIN, Genoskin). Description: γ-H2Ax immunofluorescence (DNA double-strand breaks) on human skin explants after repeated UVA irradiation. Format: cell-based. The note with it: skin explant, topical (Ia) 100 ppm in Carbopol, three UVA stresses 50 J/cm2. As to the method:
(§1) In these examples, the protective properties of the compound (Ia) against the damage caused to the DNA and to the extracellular matrix by repeated UVA irradiation, are measured on explants of human skin (NATIVESKIN, Genoskin).
(§2) Upon reception of the explants, the latter are topically coated with Carbopol® (Lubrizol)+DMSO for the non-UVA control (CTL without stress) and for the control with stress by UVAs (CTL UVA), and with Carbopol®+compound (Ia) at 100 ppm for the test.
(§3) Over three days, the cells are subjected to three stresses with UVAs at a rate of 50 joules per square centimetre.
(§4) The first irradiation takes place 24 hours after the treatments. The products are present before, during and after the irradiation. The control without stress is wrapped in aluminium and also placed in the irradiator.
During the irradiation, the explants inserted are disposed in a petri dish with PBS. Fresh medium (Genoskin Culture medium) is added after the irradiation. […]
The sections are mounted on a slide, and observed using a microscope (Leica DM5000B). An absence of fluorescence is clearly observed for the sample treated with the compound (Ia) according to the invention, which corresponds to an absence of double-strand breaks of the DNA.
The fluorescence is quantified by means of the microscope.

For test [3] the test system is unchanged. Description: Morphological study (haematoxylin and eosin) of human skin explants after repeated UVA irradiation. Format: cell-based. The following applies: skin explant; topical (Ia) 100 ppm; three UVA stresses 50 J/cm2; FIG. 3. The protocol:
as §1, §2, §3, §4
(§5) During the irradiation, the explants inserted are disposed in a petri dish with PBS. Fresh medium (Genoskin Culture medium) is added after the irradiation.
(§6) After the third day of irradiation, the explants are cultivated for 24 hours, then collected and fixed for 48 hours in formalin (Sigma). The samples are included in paraffin and cut.
A morphological study of the skin is implemented.
The samples of explant are deparaffined, rehydrated and then they are subjected to colouration with haematoxylin and with eosin in order to observe the in-depth effect of the compound (Ia) on the skin. […]

In test [4] the test system is ELN (Elastin). Description: Elastin immunofluorescence on human skin explants after repeated UVA irradiation. The note with it: skin explant, (Ia) 100 ppm. Format: cell-based. The protocol: as §1, §2, §3, §4, §5, §6
Marking of the protein elastin is carried out by immunofluorescence on a paraffin section.
The samples are prepared for the fluorescent marking. […]
The sections are mounted on a slide and the fluorescence is quantified using a microscope (Leica DM5000B).

Test [5] relates to Sirtuin-6. Description: Gene expression of Sirtuin-6 by real-time quantitative PCR in NHDF. Format: cell-based, human. As to the method: The cells used for this example are normal human Fibroblasts (NHDF) The cells are inoculated in 96-well plates at a concentration of 10000 cells per well.
The contact with the compound tested is carried out for 24 h. After the 24 h contact, the supernatant is eliminated and the cells are collected in a lysis solution in order to extract the mRNA. The mRNA is reverse transcribed into DNA then quantified by real-time quantitative PCR.

The subject of test [6] is MMP-9. Description: Gene expression of MMP-9 by quantitative RT-PCR in NHEK. Format: cell-based, human. The note with it: (Ia) 3 ppm (10^−5M), 24 hours. The protocol: In these examples, the expression of the messenger RNA is measured by the technique of quantitative RT-PCR (reverse transcription followed by polymerase chain reaction), after incubation in vitro of the various cell types in the absence or in the presence of compound (Ia).
This study was carried out on normal human dermal Fibroblasts (NHDF) or normal human epidermal Keratinocytes (NHEK). The compound (Ia) is tested at 10^−5M in an aqueous solution with 0.1% dimethylsulfoxide.
The cells are cultured at the concentration of 10,000 cells per well of 96-well plates, in the presence of standard culture medium according to the cell type.
The compound (Ia) is then added at the concentration (3 ppm), for 24 hours.
The supernatant is eliminated and the cells are taken up in a specific buffer for the extraction of the messenger RNA (mRNA). The mRNA is purified and reverse transcribed in the presence of a commercial reverse transcriptase.
The complementary DNA (cDNA) obtained is quantified by RT-PCR, by means of suitable primers. The rate of expression of the mRNA is normalised with 5 reference genes.
The cells used for this example are normal human keratinocytes (NHEK).

The structures appear in SMILES notation. Marks after values point to notes of the source that are not given here.

In the case of `Cc1ncc(CO)c(CNC(=O)/C=C/c2ccc(O)c(O)c2)c1O` [Compound (Ia)], in test [1], the “Double-strand breaks of the DNA for NHEK (AU)” value is 11193* AU. For the same compound, the “Cells positive for γ-H2Ax marking / total number of cells” value in test [2] is 59/1282. Further, the “Cells positive for γ-H2Ax marking based on 100%” value in test [2] (CTL UVA 33.93%, CTL without stress 4.34%) came out at 4.76%. For the same compound, the “Morphology of the skin (epidermal barrier, structure of the dermis) after UVA” value in test [3] is “the epidermal barrier is preserved from the degradation by the UVAs and the structure of the dermis is preserved”. In test [4] (CTL UVA 145.9, CTL without stress 160.4), the “Average fluorescence intensity of the marking ELN (AU)” value was found to be 182.4 AU. Further, the “Cells positive for ELN based on 100%” value in test [4] (relative to CTL without stress, CTL UVA −9%) was “+14%”. In addition, the “Gene expression of the sirtuin-6 compared to the basal level based on 100%” value in test [5] (24 h contact) came to 166%. Besides, in test [5] (see Example 13), the “stimulation of the expression of the gene of the Sirtuin-6 with respect to the untreated control” value is reported as 66%. In addition, the “Reduction of the gene expression compared to the basal level based on 100% (MMP-9)” value in test [6] was −75%.
